{"source": "patent US9428472B2", "about": "“Methods of treating bacterial infections with 1,2-benzisothiazolinone and isoindolinone derivatives” (GEORGETOWN UNIVERSITY, priority 2011, dated 2016)", "key": {"[1]": {"tested_on": "Enterococcus fecalis 29212", "experiment": "Disc-diffusion method (disc inhibition testing)", "type": "cell-based", "conditions": "read-out: Zone diameter", "method": "(§1) An inoculum of the tested organism was made from an 18-24 h agar plate and was grown overnight to 0.5 McFarland standard. This suspension was then spread on a fresh Mueller-Hinton plate in the following manner: Optimally, within 15 minutes after adjusting the turbidity of the inoculum suspension, a sterile cotton swab was dipped the suspension. The swab was rotated several times and pressed firmly on the inside wall of the tube to remove excess inoculum. The dried surface of the Mueller-Hinton agar plate was then inoculated by streaking the swab over the entire sterile agar surface. Discs of sterile filter paper were inoculated with standard amounts of compounds (5, 10 and 25 microgram) and were dried before application on to the streaked plate. A control disc with the same DMSO % as the test discs were also applied to the plate. The plates were inverted after 15 minutes and were placed in an incubator set to 35° C. After 16-18 h, the plates were examined. The circular zones of inhibition were evaluated by measuring the diameter of the circular margin with no obvious visible growth. The inhibition diameters of standardized drugs against the tested organism were also determined simultaneously and are compared to those mentioned in CLSI M02-A10."}, "[2]": {"tested_on": "Enterococcus fecalis 51299 (VRE)", "experiment": "Disc-diffusion method (disc inhibition testing)", "type": "cell-based", "method": "as §1"}, "Group A Streptococci": {"tested_on": "Group A Streptococci", "experiment": "Disc-diffusion method (disc inhibition testing)", "type": "cell-based", "conditions": "read-out: Zone diameter", "method": "as §1"}, "Micrococcus sp": {"tested_on": "Micrococcus sp", "experiment": "Disc-diffusion method (disc inhibition testing)", "type": "cell-based", "conditions": "read-out: Zone diameter", "method": "as §1"}, "[3]": {"tested_on": "Staphylocccus saprophyticus", "experiment": "Disc-diffusion method (disc inhibition testing)", "type": "cell-based", "conditions": "read-out: Zone diameter", "method": "as §1"}, "[4]": {"tested_on": "Staphylococcus aureus 25923", "experiment": "Disc-diffusion method (disc inhibition testing)", "type": "cell-based", "conditions": "read-out: Zone diameter", "method": "as §1"}, "[5]": {"tested_on": "Staphylococcus aureus 29213", "experiment": "Disc-diffusion method (disc inhibition testing)", "type": "cell-based", "conditions": "read-out: Zone diameter", "method": "as §1"}, "[6]": {"tested_on": "Staphylococcus aureus 43300 (MRSA)", "experiment": "Disc-diffusion method (disc inhibition testing)", "type": "cell-based", "method": "as §1"}, "Aeromonas sp": {"tested_on": "Aeromonas sp", "experiment": "Disc-diffusion method (disc inhibition testing)", "type": "cell-based", "conditions": "Conc. 10/25/50 μg", "method": "as §1, with “Discs of sterile filter paper were inoculated with standard amounts of compounds (5, 10 and 25 microgram) and were dried before application on to the streaked plate.” left out"}, "E. Coli 25922": {"tested_on": "E. Coli 25922", "experiment": "Disc-diffusion method (disc inhibition testing)", "type": "cell-based", "conditions": "Conc. 10/25/50 μg", "method": "as §1, with “Discs of sterile filter paper were inoculated with standard amounts of compounds (5, 10 and 25 microgram) and were dried before application on to the streaked plate.” left out"}, "Klebsiella oxytoca": {"tested_on": "Klebsiella oxytoca", "experiment": "Disc-diffusion method (disc inhibition testing)", "type": "cell-based", "conditions": "Conc. 10/25/50 μg", "method": "as §1, with “Discs of sterile filter paper were inoculated with standard amounts of compounds (5, 10 and 25 microgram) and were dried before application on to the streaked plate.” left out"}, "Klebsiella pnemonia 1705": {"tested_on": "Klebsiella pnemonia 1705", "experiment": "Disc-diffusion method (disc inhibition testing)", "type": "cell-based", "conditions": "Conc. 10/25/50 μg", "method": "as §1, with “Discs of sterile filter paper were inoculated with standard amounts of compounds (5, 10 and 25 microgram) and were dried before application on to the streaked plate.” left out"}, "Proteus sp 35651": {"tested_on": "Proteus sp 35651", "experiment": "Disc-diffusion method (disc inhibition testing)", "type": "cell-based", "conditions": "Conc. 10/25/50 μg", "method": "as §1, with “Discs of sterile filter paper were inoculated with standard amounts of compounds (5, 10 and 25 microgram) and were dried before application on to the streaked plate.” left out"}, "Pseudomonas aeroginosa": {"tested_on": "Pseudomonas aeroginosa", "experiment": "Disc-diffusion method (disc inhibition testing)", "type": "cell-based", "conditions": "Conc. 10/25/50 μg", "method": "as §1, with “Discs of sterile filter paper were inoculated with standard amounts of compounds (5, 10 and 25 microgram) and were dried before application on to the streaked plate.” left out"}, "Shigella sp": {"tested_on": "Shigella sp", "experiment": "Disc-diffusion method (disc inhibition testing)", "type": "cell-based", "conditions": "Conc. 10/25/50 μg", "method": "as §1, with “Discs of sterile filter paper were inoculated with standard amounts of compounds (5, 10 and 25 microgram) and were dried before application on to the streaked plate.” left out"}, "Streptococcus pneumoniae": {"tested_on": "Streptococcus pneumoniae", "experiment": "Disc-diffusion method (disc inhibition testing)", "type": "cell-based", "conditions": "Conc. 10/25/50 μg", "method": "as §1, with “Discs of sterile filter paper were inoculated with standard amounts of compounds (5, 10 and 25 microgram) and were dried before application on to the streaked plate.” left out"}, "[7]": {"tested_on": "Staphylococcus saprophyticus, Staphylococcus aureus, Micrococcus sp., Enterococcus fecalis and Group A Streptococcus", "experiment": "Broth microdilution method, MIC-50 over the tested organisms", "type": "cell-based", "method": "(§2) The in vitro toxicity of these compounds was determined by the neutral red (both compounds I-1 and I-2) and MTT (3-(4,5-Dimethylthiazol-2-yl)-2,5-diphenyltetrazolium bromide) assay (compound I-1) in human hepatic cell lines Huh7 and HepG2.\n96 well plates were used to determine the MIC-50 endpoints for most fastidious organisms. The tested compounds were diluted in RPMI to 50 microgram/ml and 0.1 ml was added to the first well. Two-fold dilutions were made in subsequent wells in RPMI to get a range of concentrations from 0.1-50 μg/ml. The volume of diluted compound in each well was 100 microliter. Bacteria were grown in Mueller-Hinton Broth from a single colony from a fresh plate of the tested organism. The broth was grown overnight to 0.5 McFarland standard (10^8 cells) and further diluted in RPMI to get a final inoculum concentration of 5×10^5 CFU/mL. 15 minutes after the inoculum had been standardized as described above, 5 μl of this suspension was inoculated to each well containing 0.1 ml of the tested compound. This plate was then kept at 35° C. for 16-20 h in an ambient air incubator. […] The concentration of inoculum suspension was confirmed by replating on to agar plates. […] The endpoints of standardized drugs are also determined simultaneously and were compared to those mentioned in CLSI M07-08."}, "[8]": {"tested_on": "Gram-positive bacterial organisms", "experiment": "Screening for antibacterial compounds (disc diffusion method, CSLI M02-A10)", "type": "cell-based", "method": "as §1"}, "HepG2": {"tested_on": "HepG2", "experiment": "In vitro toxicity, neutral red cell viability and MTT assays", "type": "cell-based, human", "method": "as §2\n(§3) The neutral red cell viability assay and the MTT assays were conducted with the active compounds at defined concentrations in human hepatoma cell lines, Huh7 and HepG2, as described by Repetto et al (Repetto G, Peso A. D. & Zurita J. L., Neutral red uptake assay for the estimation of cell viability/cytotoxicity, Nature Protocols 3, 1125-1131 (2008)) and Mosmann et al (Mosmann T., Rapid colorimetric assay for cellular growth and survival: application to proliferation and cytotoxicity assays, Journal of Immunological Methods 65 (1-2): 55-63, (December 1983)) respectively. The cell cytotoxicity (CC-50) concentrations were calculated for the HepG2 cell line."}, "Huh7": {"tested_on": "Huh7", "experiment": "In vitro toxicity, neutral red cell viability and MTT assays", "type": "cell-based, human", "method": "as §2, §3"}, "[9]": {"conditions": "neutral red (I-1, I-2) and MTT (I-1)"}}, "note": "Read-outs that look alike come from different tables or passages of the source.", "data": [{"compound": "O=C(Cn1sc2ccccc2c1=O)Nc1ccccc1Oc1ccccc1", "note": "[Compound I-2]", "values": [{"measurement": "zone of inhibition at 10 µg/disc", "setting": "[1]; Conc. 10 μg", "value": 14, "unit": "mm"}, {"measurement": "zone of inhibition at 25 µg/disc", "setting": "[1]; Conc. 25 μg", "value": 16, "unit": "mm"}, {"measurement": "zone of inhibition at 50 µg/disc", "setting": "[1]; Conc. 50 μg", "value": 18, "unit": "mm"}, {"measurement": "zone of inhibition at 10 µg/disc", "setting": "[2]; Enterococcus, VRE, Conc. 10 μg, read-out: Zone diameter", "value": 17, "unit": "mm"}, {"measurement": "zone of inhibition at 25 µg/disc", "setting": "[2]; Enterococcus, VRE, Conc. 25 μg, read-out: Zone diameter", "value": 22, "unit": "mm"}, {"measurement": "zone of inhibition at 50 µg/disc", "setting": "[2]; Enterococcus, VRE, Conc. 50 μg, read-out: Zone diameter", "value": 24, "unit": "mm"}, {"measurement": "activity against Enterococcus fecalis ATCC 51299 (VRE)", "setting": "[2]; method not named", "value": "active"}, {"measurement": "zone of inhibition at 10 µg/disc", "setting": "Group A Streptococci; Conc. 10 μg", "value": 20, "unit": "mm"}, {"measurement": "zone of inhibition at 25 µg/disc", "setting": "Group A Streptococci; Conc. 25 μg", "value": 24, "unit": "mm"}, {"measurement": "zone of inhibition at 50 µg/disc", "setting": "Group A Streptococci; Conc. 50 μg", "value": 27, "unit": "mm"}, {"measurement": "zone of inhibition at 10 µg/disc", "setting": "Micrococcus sp; Conc. 10 μg", "value": 27, "unit": "mm"}, {"measurement": "zone of inhibition at 25 µg/disc", "setting": "Micrococcus sp; Conc. 25 μg", "value": 28, "unit": "mm"}, {"measurement": "zone of inhibition at 50 µg/disc", "setting": "Micrococcus sp; Conc. 50 μg", "value": 29, "unit": "mm"}, {"measurement": "zone of inhibition at 10 µg/disc", "setting": "[3]; Conc. 10 μg", "value": 22, "unit": "mm"}, {"measurement": "zone of inhibition at 25 µg/disc", "setting": "[3]; Conc. 25 μg", "value": 24, "unit": "mm"}, {"measurement": "zone of inhibition at 50 µg/disc", "setting": "[3]; Conc. 50 μg", "value": 25, "unit": "mm"}, {"measurement": "zone of inhibition at 10 µg/disc", "setting": "[4]; Conc. 10 μg", "value": 18, "unit": "mm"}, {"measurement": "zone of inhibition at 25 µg/disc", "setting": "[4]; Conc. 25 μg", "value": 21, "unit": "mm"}, {"measurement": "zone of inhibition at 50 µg/disc", "setting": "[4]; Conc. 50 μg", "value": 23, "unit": "mm"}, {"measurement": "zone of inhibition at 10 µg/disc", "setting": "[5]; Conc. 10 μg", "value": 16, "unit": "mm"}, {"measurement": "zone of inhibition at 25 µg/disc", "setting": "[5]; Conc. 25 μg", "value": 18, "unit": "mm"}, {"measurement": "zone of inhibition at 50 µg/disc", "setting": "[5]; Conc. 50 μg", "value": 22, "unit": "mm"}, {"measurement": "zone of inhibition at 10 µg/disc", "setting": "[6]; Staphylococcus aureus, MRSA, Conc. 10 μg, read-out: Zone diameter", "value": 19, "unit": "mm"}, {"measurement": "zone of inhibition at 25 µg/disc", "setting": "[6]; Staphylococcus aureus, MRSA, Conc. 25 μg, read-out: Zone diameter", "value": 19, "unit": "mm"}, {"measurement": "zone of inhibition at 50 µg/disc", "setting": "[6]; Staphylococcus aureus, MRSA, Conc. 50 μg, read-out: Zone diameter", "value": 23, "unit": "mm"}, {"measurement": "activity against Staphylococcus aureus ATCC 43300 (MRSA)", "setting": "[6]; method not named", "value": "active"}, {"measurement": "Zone diameter", "setting": "Aeromonas sp", "value": "NOT ACTIVE"}, {"measurement": "Zone diameter", "setting": "E. Coli 25922", "value": "NOT ACTIVE"}, {"measurement": "Zone diameter", "setting": "Klebsiella oxytoca", "value": "NOT ACTIVE"}, {"measurement": "Zone diameter", "setting": "Klebsiella pnemonia 1705", "value": "NOT ACTIVE"}, {"measurement": "Zone diameter", "setting": "Proteus sp 35651", "value": "NOT ACTIVE"}, {"measurement": "Zone diameter", "setting": "Pseudomonas aeroginosa", "value": "NOT ACTIVE"}, {"measurement": "Zone diameter", "setting": "Shigella sp", "value": "NOT ACTIVE"}, {"measurement": "Zone diameter", "setting": "Streptococcus pneumoniae", "value": "NOT ACTIVE"}, {"measurement": "MIC50", "setting": "[7]; range over the five named organisms, read-out: MIC-50 concentrations", "value": "1 to 15", "unit": "µg/mL"}, {"measurement": "MIC50", "setting": "[7]; range over the tested gram positive pathogens, read-out: MIC-50 values", "value": "1 to 15", "unit": "µg/mL"}, {"measurement": "activity against Staphylococcus saprophyticus, Staphylococcus aureus, Micrococcus sp., Enterococcus fecalis and Group A Streptococcus", "setting": "[8]", "value": "showed activity"}, {"measurement": "antibiotic activity against Gram-positive bacterial organisms", "setting": "[8]; disc diffusion screening", "value": "antibiotic activity"}, {"measurement": "concentration up to which no toxicity was shown", "setting": "HepG2", "value": "≥ 100", "unit": "microgram/ml"}, {"measurement": "in vitro toxicity", "setting": "HepG2; [9]", "value": "Minimal in vitro toxicity"}, {"measurement": "concentration up to which no toxicity was shown", "setting": "Huh7", "value": "≥ 100", "unit": "microgram/ml"}, {"measurement": "in vitro toxicity", "setting": "Huh7; [9]", "value": "Minimal in vitro toxicity"}]}]}
